Laboratory results from patent publication US20260232666A1, “COMPOSITIONS AND METHODS FOR INHIBITION OF RAS” (TheRas, Inc., priority 2023, published 2026).

How the values were obtained:
pERK in NCI-H358 cells = experiment: Cell-based pERK HTRF assay (pERK inhibition in H358 cells); settings: 30 min incubation
How it was run: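 NCI-H358 cells were seeded at 4×10^4 cells/well in RPMI/10% FBS, then treated next day for 30 min at 0.25% DMSO (9-point, 3-fold series from 75 μM). Lysates were read by HTRF (d2/Eu cryptate antibody pair, 615 nm emission) after 4–24 h at room temperature to give pERK IC50.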

[1] = biological target: T1, GDP-loaded KRAS4b (amino acids 1-169) G12C/C118S protein (Homo sapiens, UniProt P01116, C118S/G12C); experiment: Covalent cysteine 12 modification by MALDI-TOF MS, GDP-loaded KRAS G12C; type: binding; settings: 15 minutes reaction time point
T1 construct: KRAS4b (amino acids 1-169) G12C/C118S protein; made in house
How it was run: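 Covalent labelling is scored at 15 min by MALDI-TOF mass spectrometry, using 1 μM protein with compound at a 1:2.5 protein-to-compound ratio at room temperature.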

Row | Compound | IC50 (pERK in NCI-H358 cells; Homo sapiens, NCI-H358, 0.5 h) | GDP-KRAS G12C percent of modification [1] | IC50 (pERK in NCI-H358 cells)
1 | C=CC(=O)N1CC[C@@H](N(C)c2nc(OC[C@@]34CCCN3C[C@H](F)C4)nc3c(F)c(-c4ccc(F)c5sc(N)c(C#N)c45)c(Cl)cc23)[C@@H]1C (atropisomer, axis not shown) [Compound 68] | < 100 nM | A (percent of modification ≥70%) | –
2 | C=CC(=O)N1CC[C@@H](N(C)c2nc(OC[C@@]34CCCN3C[C@H](F)C4)nc3c(F)c(-c4ccc(F)c5sc(N)c(C#N)c45)c(Cl)cc23)[C@@H]1C (atropisomer, axis not shown) [Compound 69] | – | D (percent of modification <10%) | 100 to 1000 nM
3 | C=CC(=O)N1CCC(N(C)c2nc(OC[C@@H]3CCCN3C3CC3)nc3c(F)c(-c4ccc(F)c5sc(N)c(C#N)c45)c(C(F)(F)F)cc23)[C@H]1C (some centres unmarked) [Compound 1] | 100 to 1000 nM | B (50≤percent of modification <70%) | –
4 | C=CC(=O)N1CCC(N(C)c2nc(OC[C@@]34CCCN3C[C@H](F)C4)nc3c(F)c(-c4ccc(F)c5sc(N)c(C#N)c45)c(Cl)cc23)[C@H]1CC (some centres unmarked) [Compound 2] | < 100 nM | B (50≤percent of modification <70%) | –
5 | C=CC(=O)N1CCC(N(C)c2nc(OC[C@@]34CCCN3C[C@H](F)C4)nc3c(F)c(-c4ccc(F)c5sc(N)c(C#N)c45)c(C(F)(F)F)cc23)[C@H]1CC (some centres unmarked) [Compound 3] | < 100 nM | C (10%≤percent of modification <50%) | –
6 | C=CC(=O)N1C[C@H]2C[C@@H]1CN2c1nc(OC[C@@]23CCCN2C[C@H](F)C3)nc2c(F)c(-c3ccc(F)c4sc(N)c(C#N)c34)c(C(F)(F)F)cc12 [Compound 37] | 100 to 1000 nM | C (10%≤percent of modification <50%) | –
7 | C=CC(=O)N1CC[C@@H](N(CC)c2nc(OC[C@@]34CCCN3C[C@H](F)C4)nc3c(F)c(-c4ccc(F)c5sc(N)c(C#N)c45)c(C(F)(F)F)cc23)[C@H]1CC [Compound 39] | < 100 nM | C (10%≤percent of modification <50%) | –
8 | C=CC(=O)N1CC[C@@H](N(CC)c2nc(OC[C@@]34CCCN3C[C@H](F)C4)nc3cc(-c4ccc(F)c5sc(N)c(C#N)c45)c(C#N)cc23)[C@@H]1CC [Compound 40] | 100 to 1000 nM | A (percent of modification ≥70%) | –
9 | C=CC(=O)N1CC[C@@H](N(CC)c2nc(OC[C@@]34CCCN3C[C@H](F)C4)nc3cc(-c4ccc(F)c5sc(N)c(C#N)c45)c(F)cc23)[C@@H]1CC [Compound 41] | 100 to 1000 nM | A (percent of modification ≥70%) | –
10 | C=CC(=O)N1CC[C@@H](N(C)c2nc(OC[C@@]34CCCN3C[C@H](F)C4)nc3cc(-c4ccc(F)c5sc(N)c(C#N)c45)c(C#N)cc23)[C@H]1CC [Compound 42] | < 100 nM | A (percent of modification ≥70%) | –
11 | C=CC(=O)N1CC[C@@H](N(CC)c2nc(OC[C@@H]3C[C@@H](OC)CN3C)nc3c(F)c(-c4ccc(F)c5sc(N)c(C#N)c45)c(C(F)(F)F)cc23)[C@H]1C [Compound 45, 4-(4-(((2R,3R)-1-acryloyl-2-methylpyrrolidin-3-yl)(ethyl)amino)-8-fluoro-2-(((2S,4R)-4-methoxy-1-methylpyrrolidin-2-yl)methoxy)-6-(trifluoromethyl)quinazolin-7-yl)-2-amino-7-fluorobenzo[b]thiophene-3-carbonitrile] | < 100 nM | A (percent of modification ≥70%) | –
12 | C=CC(=O)N1CC2CC(C1)N2c1nc(OC[C@@]23CCCN2C[C@H](F)C3)nc2c(F)c(-c3ccc(F)c4sc(N)c(C#N)c34)c(C(F)(F)F)cc12 [Compound 46] | 100 to 1000 nM | C (10%≤percent of modification <50%) | –
13 | C=CC(=O)N1CC2CCC(C1)N2c1nc(OC[C@@]23CCCN2C[C@H](F)C3)nc2c(F)c(-c3ccc(F)c4sc(N)c(C#N)c34)c(C(F)(F)F)cc12 [Compound 49] | < 100 nM | A (percent of modification ≥70%) | –
14 | C=CC(=O)N1CC[C@@H](N(CC)c2nc(OC[C@@]34CCCN3C[C@H](F)C4)nc3c(F)c(-c4ccc(F)c5sc(N)c(C#N)c45)ccc23)[C@@H]1CC [Compound 50] | 100 to 1000 nM | A (percent of modification ≥70%) | –
15 | C=CC(=O)N1CC[C@@H](N(CC)c2nc(OC[C@@H]3C[C@@H](F)CN3C)nc3c(F)c(-c4ccc(F)c5sc(N)c(C#N)c45)c(C(F)(F)F)cc23)[C@H]1C [Compound 52] | – | C (10%≤percent of modification <50%) | < 100 nM
16 | C=CC(=O)N1CC[C@@H](N(C)c2nc(OC[C@@H]3C[C@@H](F)CN3C)nc3c(F)c(-c4ccc(F)c5sc(N)c(C#N)c45)c(C(F)(F)F)cc23)[C@H]1C [Compound 55] | < 100 nM | A (percent of modification ≥70%) | –
17 | C=CC(=O)N1CC[C@@H](N(CC)c2nc(OC[C@@]34CCCN3C[C@H](F)C4)nc3cc(-c4ccc(F)c5sc(N)c(C#N)c45)c(C#N)cc23)[C@@H]1C [Compound 56] | < 100 nM | A (percent of modification ≥70%) | –

Row | Compound | IC50 (pERK in NCI-H358 cells; Homo sapiens, NCI-H358, 0.5 h) | GDP-KRAS G12C percent of modification [1] | IC50 (pERK in NCI-H358 cells)
18 | C=CC(=O)N1CC[C@@H](N(CC)c2nc(OC[C@@]34CCCN3C[C@H](F)C4)nc3c(F)c(-c4ccc(F)c5sc(N)c(C#N)c45)ccc23)[C@@H]1C [Compound 57] | < 100 nM | A (percent of modification ≥70%) | –
19 | C=CC(=O)N1CC[C@@H](N(CC)c2nc(OC[C@@H]3CCCN3C)nc3c(F)c(-c4ccc(F)c5sc(N)c(C#N)c45)c(Cl)cc23)[C@H]1C [Compound 58] | < 100 nM | A (percent of modification ≥70%) | –
20 | C=CC(=O)N1CC[C@@H](N(C)c2nc(OC[C@@H]3CCCN3C)nc3c(F)c(-c4ccc(F)c5sc(N)c(C#N)c45)c(Cl)cc23)[C@H]1C [Compound 59] | – | – | < 100 nM
21 | C=CC(=O)N1CC[C@@H](N(CC)c2nc(OC[C@@H]3C[C@@H](F)CN3C)nc3c(F)c(-c4ccc(F)c5sc(N)c(C#N)c45)c(Cl)cc23)[C@H]1C [Compound 60] | < 100 nM | C (10%≤percent of modification <50%) | –
22 | C=CC(=O)N1CC[C@@H](N(C)c2nc(OC[C@@H]3C[C@@H](F)CN3C)nc3c(F)c(-c4ccc(F)c5sc(N)c(C#N)c45)c(Cl)cc23)[C@H]1C [Compound 61] | < 100 nM | – | –
23 | C=CC(=O)N1CC[C@@H](N(C)c2nc(OC[C@@H]3C[C@@H](OC)CN3C)nc3c(F)c(-c4ccc(F)c5sc(N)c(C#N)c45)c(Cl)cc23)[C@H]1C [Compound 63, 4-(4-(((2R,3R)-1-acryloyl-2-methylpyrrolidin-3-yl)(methyl)amino)-6-chloro-8-fluoro-2-(((2S,4R)-4-methoxy-1-methylpyrrolidin-2-yl)methoxy)quinazolin-7-yl)-2-amino-7-fluorobenzo[b]thiophene-3-carbonitrile] | < 100 nM | A (percent of modification ≥70%) | –
24 | C=CC(=O)N1CC[C@@H](N(C)c2nc(OC[C@@H]3CC4(CC4)CN3C)nc3c(F)c(-c4ccc(F)c5sc(N)c(C#N)c45)c(Cl)cc23)[C@H]1C [Compound 64] | < 100 nM | – | –
25 | C=CC(=O)N1CC[C@@H](N(CC)c2nc(OC[C@@H]3CC4(CC4)CN3C)nc3c(F)c(-c4ccc(F)c5sc(N)c(C#N)c45)c(C(F)(F)F)cc23)[C@H]1C [Compound 65] | < 100 nM | – | –
26 | C=CC(=O)N1CC[C@@H](N(CC)c2nc(OC[C@@H]3CCCN3C)nc3c(F)c(-c4ccc(F)c5sc(N)c(C#N)c45)c(C(F)(F)F)cc23)[C@H]1C [Compound 66] | < 100 nM | – | –
27 | C=CC(=O)N1CC[C@@H](N(C)c2nc(OC[C@@H]3CCCN3C)nc3c(F)c(-c4ccc(F)c5sc(N)c(C#N)c45)c(C(F)(F)F)cc23)[C@H]1C [Compound 67] | – | A (percent of modification ≥70%) | < 100 nM
28 | C=CC(=O)N1CC[C@@H](N(CC)c2nc(OC[C@@H]3C[C@@H](OC)CN3C)nc3c(F)c(-c4ccc(F)c5sc(N)c(C#N)c45)c(Cl)cc23)[C@H]1C [Compound 73] | < 100 nM | B (50≤percent of modification <70%) | –
29 | C=CC(=O)N1CC[C@@H](N(CC)c2nc(OC[C@@H]3CC4(CC4)CN3C)nc3c(F)c(-c4ccc(F)c5sc(N)c(C#N)c45)c(Cl)cc23)[C@H]1C [Compound 75] | – | A (percent of modification ≥70%) | < 100 nM
30 | C=CC(=O)N1CC[C@@H](N(CC)c2nc(OC[C@@]34CCCN3C[C@H](F)C4)nc3cc(-c4ccc(F)c5sc(N)c(C#N)c45)c(F)cc23)[C@H]1CC [Compound 76] | 100 to 1000 nM | A (percent of modification ≥70%) | –
31 | C=CC(=O)N1CC[C@@H](N(CC)c2nc(OC[C@@]34CCCN3C[C@H](F)C4)nc3c(F)c(-c4ccc(F)c5sc(N)c(C#N)c45)c(Cl)cc23)[C@@H]1C [Compound 77] | < 100 nM | A (percent of modification ≥70%) | –
32 | C=CC(=O)N1CC[C@@H](N(C)c2nc(OC[C@@H]3C[C@@H](OC)CN3C)nc3c(F)c(-c4ccc(F)c5sc(N)c(C#N)c45)c(Cl)cc23)[C@@H]1C [Compound 79] | < 100 nM | – | –
33 | C=CC(=O)N1CC[C@@H](N(C)c2nc(OC[C@@H]3CCCN3CC)nc3c(F)c(-c4ccc(F)c5sc(N)c(C#N)c45)c(Cl)cc23)[C@@H]1C [Compound 84] | < 100 nM | – | –
